The source of these data is PubChem BioAssay AID1963842 (Molecular Pharmacology Branch, DTP, NCI, 2024).

The test system of this experiment is 677734-321-R-J1-PDC complex spheroid viability. In words: Anticancer human tumor 677734-321-R-J1-PDC patient-derived soft tissue sarcoma cell line growth inhibition [POLQ]. The following applies: for viability, T/C: stronger effect = lower value. The method, then:
Multicellular complex tumor spheroid response to Polymerase (POL) inhibitors (novobiocin, ART-558, RP6685) in combination with a variety of drugs and investigational agents in selected tumor cell lines
The POL inhibitors (novobiocin, ART-558, and RP6685) were evaluated both individually and in combination with standard of care and investigational anticancer small molecules within a complex spheroid model of solid tumors. . Complex spheroids include a stromal component modeled by human endothelial cells (HUVEC) and fibroblasts modeled by human mesenchymal stem cells (MSCs). The concentration ranges selected for each drug and investigational agent were based upon clinically achievable concentrations if the clinical Cmax of the agent was known.
Compounds. The drugs and investigational agents: novobiocin (NSC847541), ART-558 (NSC835418), RP-6685 (NSC848927), peposertib (NSC802822), ceralasertib (NSC780249), elimusertib (NSC800525), camonsertib (NSC841442), AZD-1390 (NSC803789), olaparib (NSC753686), talazoparib (NSC767125), rucaparib (NSC756644), sotorasib (NSC818433), MRTX-1133 (NSC836407), SN-38 (NSC673596), topotecan (NSC609699), epotoside (NSC141540), doxorubicin (NSC123127), gemcitabine (NSC613327), 5-fluorouracil (NSC19893), paclitaxel (NSC125973), vemurafenib (NSC761431), MSA-2 (NSC828583), SN-011 (NSC837082), adavosertib (NSC754352), prexasertib (NSC758257), carboplatin (NSC241240) and oxaliplatin (NSC266046), were obtained from the National Cancer Institute (NCI) Developmental Therapeutics Program Chemical Repository (21). The FDA-approved anticancer drug set is available from the Developmental Therapeutics Program at https://dtp.cancer.gov/organization/dscb/obtaining/. […] The stock solutions were prepared in dimethyl sulfoxide (DMSO, Sigma-Aldrich, St. Louis, MO, cat. D2650), except for the platinum compounds which were prepared in saline (Quality Biological, Gaithersburg, MD, cat. 114-055-101), at 800-fold the tested concentration and stored at -70 degrees C prior to their use. All drugs and investigational agents were tested over a range starting from a high concentration at or near the clinical Cmax and decreasing in half-log increments. If the clinical Cmax for an agent had not been determined, the highest concentration tested was 10 microM, except for SN-38, which was tested at a high concentration of 1 microM.
Cell Culture. All cells were maintained in an incubator at 37 degrees C and 5% CO2 with 95% humidity. The PDC lines were cultured according to standard operating procedures established by the NCI PDMR (https://pdmr.cancer.gov). Table 3 of the manuscript, lists the cell lines along with the number of the three cell types plated to form the mct-spheroids and media for tumor cell growth. After thawing, all PDC lines, except 997537-175-T-J1-PDC and 415267-285-R-J2-PDC, were cultured in Matrigel-coated flasks prepared with a working solution of 1X Ham's F-12 nutrient mix, without supplementation (Thermo Fisher Scientific, cat. 11765054), 100 U/mL penicillin-streptomycin (Thermo Fisher Scientific, cat. 15140122), and 2.5% Matrigel (Corning Inc., Corning, NY, cat. 354248) for the first three passages. The two PDC lines 997537-175-T-J1-PDC and 415267-285-R-J2-PDC were cultured on uncoated flasks. The 857933-349-R-J2-PDC line was cultured in 6C/Colon 1B media containing advanced DMEM/F-12 (Thermo Fisher Scientific, cat. 12634028), 10 mM HEPES (Thermo Fisher Scientific, cat. 15630080), 1X GlutaMAX supplement (Thermo Fisher Scientific, cat. 35050061), 0.1 mg/mL primocin (InvivoGen, San Diego, CA, cat. ant-pm-2), 10% defined fetal bovine serum, heat inactivated (HyClone Laboratories Inc., Logan, UT, cat. SH30070.03HI), 50% L-WRN conditioned media (ATCC, cat. CRL-3276), 1.25 mM N-Acetyl-L-cysteine (Sigma-Aldrich, cat. A9165), 10 mM nicotinamide (Sigma-Aldrich, cat. N0636), 1X B-27 supplement (Thermo Fisher Scientific, cat. 17504044), 1X N-2 supplement (Thermo Fisher Scientific, cat. […]

Several values for one entry are separate records, joined by “and”; a condition that tells them apart may be missing. Identical values can stand only once.
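Note: spheroids exposed to compounds for one week.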
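Throughout, for viability, T/C: 100% = vehicle DMSO treated spheroids.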

Consider `CCCS(=O)(=O)Nc1ccc(F)c(C(=O)c2c[nH]c3ncc(-c4ccc(Cl)cc4)cc23)c1F`, for which the viability, T/C was 109% and 98.3% and 104% (compound 0.0316 µM); 98% (2×) and 103% (compound 0.1 µM); 90.9% and 101% and 108% (compound 0.316 µM); 97.4% and 115% and 111% (compound 1 µM); 71.8% and 98.3% and 112% (compound 3.16 µM); 4.28% and 6.33% and 14.5% (compound 10 µM). For the same compound, the IC50 (curve of compound) was 4.61 µM and 5.8 µM and 6.45 µM.

With `C=CCn1c(=O)c2cnc(Nc3ccc(N4CCN(C)CC4)cc3)nc2n1-c1cccc(C(C)(C)O)n1`, the viability, T/C was 109% and 100% and 106% (compound 0.00316 µM); 115% and 89.1% and 99% (compound 0.01 µM); 105% and 97.8% and 107% (compound 0.0316 µM); 103% and 90.1% and 87.8% (compound 0.1 µM); 103% and 74.6% and 85.4% (compound 0.316 µM); 64.8% and 36% and 39% (compound 1 µM). Besides, the IC50 (curve of compound) is > 1 µM and 0.657 µM and 0.753 µM.

For the compound `COc1ccc([C@@H](O)c2cc(-c3ncnc4cc(N5CCOCC5)ccc34)c(F)cc2Cl)nn1`, the viability, T/C is, setting by setting: (compound 0.0316 µM) 107% and 98.4% and 105%; (compound 0.1 µM) 105% and 99.2% and 102%; (compound 0.316 µM) 100% and 104% (2×); (compound 1 µM) 96.4% and 81.6% and 94.7%; (compound 3.16 µM) 73.8% and 64.6% and 87.4%; (compound 10 µM) 49.8% and 45.3% and 51%. For the same compound, under “curve of compound”, the IC50 was 9.83 µM and 7.58 µM and > 10 µM.

`CC[C@@]1(O)C(=O)OCc2c1cc1n(c2=O)Cc2cc3c(CN(C)C)c(O)ccc3nc2-1`: the viability, T/C reads like this: (compound 0.000316 µM) 104% (2×) and 105%; (compound 0.001 µM) 111% and 90.9% and 101%; (compound 0.00316 µM) 105% and 100% and 109%; (compound 0.01 µM) 98.2% and 82.6% and 99.5%; (compound 0.0316 µM) 46.4% and 25.9% and 36.8%; (compound 0.1 µM) 18% and 13.8% and 15%. For the same compound, the IC50 (curve of compound) was 0.0292 µM and 0.0194 µM and 0.0248 µM.

As to `CC(=O)O[C@H]1C(=O)[C@@]2(C)[C@H]([C@H](OC(=O)c3ccccc3)[C@]3(O)C[C@H](OC(=O)[C@H](O)[C@@H](NC(=O)c4ccccc4)c4ccccc4)C(C)=C1C3(C)C)[C@]1(OC(C)=O)CO[C@@H]1C[C@@H]2O`, the viability, T/C is 22% and 35.2% and 37.8% (compound 0.00949 µM); 13.4% and 15.2% and 19.2% (compound 0.03 µM); 12.7% and 15.9% and 17.6% (compound 0.0949 µM); 11.9% and 12.5% and 14.8% (compound 0.3 µM); 14.2% and 12.4% and 14.5% (compound 0.949 µM); 13.1% and 16.4% (2×) (compound 3 µM). For the same compound, for the setting “curve of compound”, the IC50 was below 0.00949 µM.

`Nc1ccc(C#CCN(C(=O)Cc2ncc(C(F)(F)F)cc2C(F)(F)F)c2ccc(F)cc2)nn1`: the viability, T/C reads like this: (compound 0.1 µM) 104% [middle of 13 runs]; (compound 0.316 µM) 103% [middle of 13 runs]; (compound 3.16 µM) 99.7% [middle of 13 runs]. Moreover, the IC50 (compound alone, run of 12/05/2023) was above 10 µM.

On to `CC1COCCN1c1cc(C2(S(C)(=N)=O)CC2)nc(-c2ccnc3[nH]ccc23)n1` (stereo unspecified), for which the viability, T/C (compound 0.0316 µM) was 109% and 103% and 113%; the viability, T/C (compound 0.1 µM) was 97.4% and 99.3% and 104%; the viability, T/C (compound 0.316 µM) was 92% and 80.2% and 107%; the viability, T/C (compound 1 µM) is 86.7% and 51.1% and 86.6%; the viability, T/C (compound 3.16 µM) was 60.8% and 28.3% and 55.8%; the viability, T/C (compound 10 µM) is 21.6% and 9.59% and 22.4%. Besides, where the note is “curve of compound”, the IC50 was 4.39 µM and 1.13 µM and 3.83 µM.
